Measured values taken from PMC10269775, “Penicillin-Binding Protein Occupancy Dataset for 18 β-Lactams and 4 β-Lactamase Inhibitors in Neisseria gonorrhoeae” (Microbiology Spectrum, 2023).
≈ marks a conversion by molar mass, not a printed value. Read-outs that look alike come from different tables or passages of the source.

How the values were obtained:
PBP1 [1] = target: T1, PBP1 (Neisseria gonorrhoeae, UniProt O05131); assay: PBP-binding assay (Bocillin FL) in isolated membrane preparations; details: strain ATCC 19424
T1 construct: endogenous in cells; host or cells: N. gonorrhoeae ATCC 19424, isolated membrane preparation
Text: (§1) Bacterial membranes were collected by ultracentrifugation.

PBP2 [2] = target: T2, PBP2 (Neisseria gonorrhoeae, UniProt P08149, H541N); assay: as above; parameters: species or system Neisseria gonorrhoeae ATCC 19424
T2 construct: endogenous in cells; host or cells: N. gonorrhoeae ATCC 19424, isolated membrane preparation

[3] = tested on: N. gonorrhoeae ATCC 49226; assay: MIC, CLSI broth microdilution; type: cell-based, Neisseria gonorrhoeae; details: Neisseria gonorrhoeae
PBP2 [4] = target: T3, PBP2 (Neisseria gonorrhoeae, UniProt P08149, A510V/A516G/A574V/F504L/H541N/I556V/I566V/K555Q/P552V); assay: biochemical; type: binding, Neisseria gonorrhoeae ATCC 49226
T3 construct: endogenous in cells; host or cells: N. gonorrhoeae ATCC 49226, isolated membrane preparation

PBP1, PBP2 and PBP3 [5] = target: T4, PBP1, PBP2 and PBP3 (Neisseria gonorrhoeae, UniProt Q5FAB9); type: binding, Neisseria gonorrhoeae ATCC 19424; details: read-out: min. IC50 (minimum observed IC50 value); strain ATCC 19424
T4 sequence (Q5FAB9 22-469): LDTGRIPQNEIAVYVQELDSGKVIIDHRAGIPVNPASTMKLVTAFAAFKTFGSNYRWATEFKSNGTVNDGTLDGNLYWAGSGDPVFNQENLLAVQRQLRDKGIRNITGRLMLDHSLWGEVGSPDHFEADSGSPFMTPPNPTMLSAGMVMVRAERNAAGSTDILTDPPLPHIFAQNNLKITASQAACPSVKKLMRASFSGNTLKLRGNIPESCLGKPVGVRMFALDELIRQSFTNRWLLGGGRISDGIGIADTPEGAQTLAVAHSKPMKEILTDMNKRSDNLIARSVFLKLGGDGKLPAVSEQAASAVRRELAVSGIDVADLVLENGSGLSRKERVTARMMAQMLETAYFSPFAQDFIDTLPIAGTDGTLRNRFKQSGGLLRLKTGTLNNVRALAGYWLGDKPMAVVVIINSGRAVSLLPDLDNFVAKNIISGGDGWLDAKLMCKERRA

PBP3 [6] = target: T5, PBP3 (Neisseria gonorrhoeae, UniProt Q5FAB9); details: read-out: IC50 PBP3; strain ATCC 49226; membrane preparation, 30 min drug then Bocillin FL
T5 sequence (Q5FAB9 22-469): T4 sequence (Q5FAB9 22-469)

PBP1 [7] = target: T6, PBP1 (Neisseria gonorrhoeae, UniProt O05131, A375T/F666S); assay: PBP-binding assay (Bocillin FL) in isolated membrane preparations; parameters: species or system Neisseria gonorrhoeae ATCC 49226
T6 construct: endogenous in cells; host or cells: N. gonorrhoeae ATCC 49226, isolated membrane preparation
Text: as §1

PBP3 [8] = target: T5, PBP3; details: read-out: IC50 PBP3; strain ATCC 19424; membrane preparation, 30 min drug then Bocillin FL
[9] = tested on: N. gonorrhoeae ATCC 19424; assay: MIC, CLSI broth microdilution; type: cell-based; details: Neisseria gonorrhoeae
PBP1, PBP2 and PBP3 [10] = target: T4, PBP1, PBP2 and PBP3; type: binding, Neisseria gonorrhoeae ATCC 49226; details: read-out: min. IC50 (minimum observed IC50 value); strain ATCC 49226
PBP1, PBP2 and PBP3 [11] = type: binding, Neisseria gonorrhoeae ATCC 19424; details: strain ATCC 19424
PBP1, PBP2 and PBP3 [12] = target: PBP1, PBP2 and PBP3 (Neisseria gonorrhoeae, UniProt P08149, H541N); type: binding, Neisseria gonorrhoeae ATCC 19424; details: read-out: min. IC50 (minimum observed IC50 value); strain ATCC 19424
PBP1, PBP2 and PBP3 [13] = type: binding, Neisseria gonorrhoeae ATCC 49226; details: strain ATCC 49226
N. gonorrhoeae = details: single 2-g dose; isolates with an MIC above 0.5 mg/L; cited from earlier work
[14] = membrane preparation, 30 min drug then Bocillin FL, read-out: IC50 PBP1 (converted)
[15] = IC50 PBP2 (Table S1), strain ATCC 19424
[16] = IC50 PBP2, strain ATCC 19424, membrane preparation, 30 min drug then Bocillin FL
[17] = ATCC49226, read-out: MIC (Table S1)
[18] = IC50 PBP2 (Table S1), strain ATCC 49226
[19] = IC50 PBP2, strain ATCC 49226, membrane preparation, 30 min drug then Bocillin FL
[20] = IC50 PBP1 (Table S1), strain ATCC 49226
[21] = IC50 PBP1, strain ATCC 49226, membrane preparation, 30 min drug then Bocillin FL
[22] = ATCC19424, read-out: MIC (Table S1)
[23] = ATCC49226, strain ATCC 49226, read-out: MIC
[24] = ATCC49226, strain ATCC 49226, read-out: MIC (Table S1)
[25] = ATCC19424, strain ATCC 19424, read-out: MIC
[26] = ATCC19424, strain ATCC 19424, read-out: MIC (Table S1)

SMILES: O=C(NC1CCNCC1)[C@@H]1CC[C@@H]2CN1C(=O)N2OS(=O)(=O)O [REL, relebactam]
- IC50 (PBP1 [1]; [14]): > 1470 µM
- IC50 (PBP2 [2]; [15]): 1470 µM
- IC50 (PBP2 [2]; [16]): > 1470 µM
- MIC ([3]; ATCC49226): > 256 µg/mL
- MIC [3, 17]: 512 µg/mL (≈ 1470 µM)
- IC50 (PBP2 [4]; [18]): > 1470 µM
- IC50 (PBP2 [4]; [19]): > 735 µM
- IC50 (PBP1, PBP2 and PBP3 [5]): 3.65 µM
- IC50 (PBP3 [6]): 3.76 µM
- IC50 (PBP1 [7]; [20]): > 1470 µM
- IC50 (PBP1 [7]; [21]): > 735 µM
- IC50 (PBP3 [8]): 3.65 µM
- MIC ([9]; ATCC19424): > 256 µg/mL
- MIC [9, 22]: 512 µg/mL (≈ 1470 µM)
- IC50 (PBP1, PBP2 and PBP3 [10]): 3.76 µM

SMILES: CC1(C)S[C@@H]2[C@H](NC(=O)Cc3ccccc3)C(=O)N2[C@H]1C(=O)O [PenG, penicillin G]
- IC50 (PBP1 [1]; [14]): 5.65 µM
- IC50 (PBP2 [2]; [16]): 0.15 µM
- MIC [3, 23]: 0.125 µg/mL (≈ 0.374 µM)
- MIC [3, 24]: 0.125 µg/mL (≈ 0.374 µM)
- IC50 (PBP2 [4]; [19]): 0.778 µM
- min. IC50 (minimum observed IC50 value) (PBP1, PBP2 and PBP3 [11]): 0.02 µg/mL
- IC50 (PBP3 [6]): 0.0299 µM
- IC50 (PBP1 [7]; [21]): > 5.98 µM
- IC50 (PBP3 [8]): 0.0598 µM
- MIC [9, 25]: 0.064 µg/mL (≈ 0.191 µM)
- MIC [9, 26]: 0.063 µg/mL (≈ 0.188 µM)
- IC50 (PBP1, PBP2 and PBP3 [10]): 0.0299 µM

SMILES: CC1(C)[C@H](C(=O)O)N2C(=O)C[C@H]2S1(=O)=O [SUL, sulbactam]
- IC50 (PBP1 [1]; [14]): 236 µM
- IC50 (PBP1 [1]; read-out: IC50 PBP1 (Table S1) (converted)): 238 µM
- IC50 (PBP2 [2]; [16]): 5.06 µM
- MIC ([3]; ATCC49226): 4 µg/mL (≈ 17.1 µM)
- MIC [3, 17]: 4 µg/mL (≈ 17.1 µM)
- IC50 (PBP2 [4]; [19]): 25.8 µM
- IC50 (PBP1, PBP2 and PBP3 [12]): 5.06 µM
- IC50 (PBP3 [6]): 27.3 µM
- IC50 (PBP1 [7]; [20]): 871 µM
- IC50 (PBP1 [7]; [21]): 870 µM
- IC50 (PBP3 [8]): 39.9 µM
- MIC ([9]; ATCC19424): 0.25 µg/mL (≈ 1.07 µM)
- MIC [9, 22]: 0.25 µg/mL (≈ 1.07 µM)
- min. IC50 (minimum observed IC50 value) (PBP1, PBP2 and PBP3 [13]): 6.02 µg/mL

SMILES: NC(=O)[C@@H]1CC[C@@H]2CN1C(=O)N2OS(=O)(=O)O [AVI, avibactam]
- IC50 (PBP1 [1]; [14]): > 1930 µM
- IC50 (PBP2 [2]; [15]): 442 µM
- IC50 (PBP2 [2]; [16]): 441 µM
- MIC ([3]; ATCC49226): > 256 µg/mL
- MIC [3, 17]: 512 µg/mL (≈ 1930 µM)
- IC50 (PBP2 [4]; [18]): > 1930 µM
- IC50 (PBP2 [4]; [19]): > 965 µM
- IC50 (PBP1, PBP2 and PBP3 [5]): 8.78 µM
- IC50 (PBP3 [6]): 20.4 µM
- IC50 (PBP1 [7]; [20]): > 1930 µM
- IC50 (PBP1 [7]; [21]): > 965 µM
- IC50 (PBP3 [8]): 8.78 µM
- MIC [9, 26]: 128 µg/mL (≈ 483 µM)
- IC50 (PBP1, PBP2 and PBP3 [10]): 20.4 µM

SMILES: C[C@@H](O)[C@H]1C(=O)N2C(C(=O)O)=C(S[C@@H]3CN[C@H](CNS(N)(=O)=O)C3)[C@H](C)[C@H]12 [DOR, doripenem]
- IC50 (PBP1 [1]; [14]): 2.69 µM
- IC50 (PBP2 [2]; [16]): 0.143 µM
- MIC [3, 23]: 0.032 µg/mL (≈ 0.0761 µM)
- MIC [3, 24]: 0.032 µg/mL (≈ 0.0761 µM)
- IC50 (PBP2 [4]; [18]): 0.214 µM
- IC50 (PBP2 [4]; [19]): 0.19 µM
- min. IC50 (minimum observed IC50 value) (PBP1, PBP2 and PBP3 [11]): 0.01 µg/mL
- IC50 (PBP1 [7]; [21]): 2.57 µM
- MIC [9, 25]: 0.004 µg/mL (≈ 0.00951 µM)
- MIC [9, 26]: 0.004 µg/mL (≈ 0.00951 µM)

SMILES: C[C@H]1[C@H](NC(=O)/C(=N\OC(C)(C)C(=O)O)c2csc(N)n2)C(=O)N1S(=O)(=O)O [ATM, aztreonam]
- IC50 (PBP1 [1]; [14]): > 4.59 µM
- MIC ([3]; ATCC49226): 0.125 µg/mL (≈ 0.287 µM)
- MIC [3, 24]: 0.25 µg/mL (≈ 0.574 µM)
- cure rate (N. gonorrhoeae): 50%
- IC50 (PBP1 [7]; [21]): > 4.59 µM
- MIC [9, 25]: 0.032 µg/mL (≈ 0.0735 µM)
- MIC [9, 26]: 0.032 µg/mL (≈ 0.0735 µM)
